Experimental data as given in patent publication US4684664A, “Derivatives of β-(4-isocyano-1,2,3,4-diepoxycyclopentyl) acrylic acid” (Kureha Kagaku Kogyo Kabushiki Kaisha, priority 1984, dated 1987).
≈ marks a conversion by molar mass, not a printed value.

Tests used:
Assay type in all cases: cell-based
[1] = tested on: Proteus morganii IFO 3848; test: Antibacterial activity, agar-dilution MIC, organism No. 18; conditions: Morganella morganii, IFO3848; Organism No. 18, bouillon-agar; read-out: Minimum Inhibitory Concentration
Source text: (§1) Agar-dilution method was used for determination of the antibacterial activity and antifungal activity while using bouillon-agar culture medium, and the minimum inhibitory concentration of the specimen was expressed by μg/ml of the culture medium.

[2] = tested on: Proteus mirabilis IFO 3849; test: Antibacterial activity, agar-dilution MIC, organism No. 19; conditions: Proteus mirabilis, IFO3849; Organism No. 19, bouillon-agar; read-out: Minimum Inhibitory Concentration
Source text: as §1

[3] = tested on: Salmonella shottmuelleri 8006; test: Antibacterial activity, agar-dilution MIC, organism No. 11; conditions: Salmonella, 8006; Organism No. 11, bouillon-agar; read-out: Minimum Inhibitory Concentration
Source text: as §1

[4] = tested on: Salmonella typhimurium IID 971; test: Antibacterial activity, agar-dilution MIC, organism No. 8; conditions: Salmonella enterica; Organism No. 8, bouillon-agar; read-out: Minimum Inhibitory Concentration
Source text: as §1

[5] = tested on: Salmonella enteritidis G 14; test: Antibacterial activity, agar-dilution MIC, organism No. 12; conditions: Salmonella enterica, ENTERITIDIS; Organism No. 12, bouillon-agar; read-out: Minimum Inhibitory Concentration
Source text: as §1

[6] = tested on: Klebsiella pneumoniae PCI-602; test: Antibacterial activity, agar-dilution MIC, organism No. 7; conditions: Klebsiella pneumoniae, PCI602; Organism No. 7, bouillon-agar; read-out: Minimum Inhibitory Concentration
Source text: as §1

[7] = tested on: Escherichia coli K12 C600 IAM 1264; test: Antibacterial activity, agar-dilution MIC, organism No. 6; conditions: Escherichia coli, IAM1264; Organism No. 6, bouillon-agar; read-out: Minimum Inhibitory Concentration
Source text: as §1

[8] = tested on: Micrococcus luteus ATCC 9341; test: Antibacterial activity, agar-dilution MIC, organism No. 25; conditions: Micrococcus luteus, ATCC9341; Organism No. 25, bouillon-agar; read-out: Minimum Inhibitory Concentration
Source text: as §1

[9] = tested on: Pseudomonas aeruginosa IFO 3445; test: Antibacterial activity, agar-dilution MIC, organism No. 15; conditions: Pseudomonas aeruginosa, IFO3445; Organism No. 15, bouillon-agar; read-out: Minimum Inhibitory Concentration
Source text: as §1

[10] = tested on: Bacillus subtilis ATCC 6633; test: Antibacterial activity, agar-dilution MIC, organism No. 14; conditions: Bacillus subtilis, ATCC6633; Organism No. 14, bouillon-agar; read-out: Minimum Inhibitory Concentration
Source text: as §1

[11] = tested on: Streptococcus faecium IFO 3826; test: Antibacterial activity, agar-dilution MIC, organism No. 27; conditions: Enterococcus faecium, IFO3826; Organism No. 27, bouillon-agar; read-out: Minimum Inhibitory Concentration
Source text: as §1

[12] = tested on: Streptococcus pyogenes Cook; test: Antibacterial activity, agar-dilution MIC, organism No. 4; conditions: Streptococcus pyogenes; Organism No. 4, bouillon-agar; read-out: Minimum Inhibitory Concentration
Source text: as §1

[13] = tested on: Escherichia coli NIHJ-JC-2; test: Antibacterial activity, agar-dilution MIC, organism No. 5; conditions: Escherichia coli, NIHJJC2; Organism No. 5, bouillon-agar; read-out: Minimum Inhibitory Concentration
Source text: as §1

Proteus vulgaris OX-19 = test: Antibacterial activity, agar-dilution MIC, organism No. 20; conditions: Proteus vulgaris, OX19; Organism No. 20, bouillon-agar; read-out: Minimum Inhibitory Concentration
Source text: as §1

Salmonella typhi 901 = test: Antibacterial activity, agar-dilution MIC, organism No. 9; conditions: Salmonella enterica, TYPHI, read-out: Minimum Inhibitory Concentration
Source text: as §1

[14] = tested on: Enterobacter aerogenes ATCC 13048; test: Antibacterial activity, agar-dilution MIC, organism No. 23; conditions: Klebsiella aerogenes, ATCC13048; Organism No. 23, bouillon-agar; read-out: Minimum Inhibitory Concentration
Source text: as §1

[15] = tested on: Staphylococcus aureus MS 353; test: Antibacterial activity, agar-dilution MIC, organism No. 3; conditions: Staphylococcus aureus, MS353; Organism No. 3, bouillon-agar; read-out: Minimum Inhibitory Concentration
Source text: as §1

[16] = tested on: Streptococcus pyogenes IFO 3340; test: Antibacterial activity, agar-dilution MIC, organism No. 26; conditions: Streptococcus pyogenes, IFO3340; Organism No. 26, bouillon-agar; read-out: Minimum Inhibitory Concentration
Source text: as §1

[17] = tested on: Staphylococcus aureus FDA 209PJc-1; test: Antibacterial activity, agar-dilution MIC, organism No. 1; conditions: Staphylococcus aureus, FDA209PJC1; Organism No. 1, bouillon-agar; read-out: Minimum Inhibitory Concentration
Source text: as §1

Proteus vulgaris HX-19 = test: Antibacterial activity, agar-dilution MIC, organism No. 21; conditions: Proteus vulgaris, HX19; Organism No. 21, bouillon-agar; read-out: Minimum Inhibitory Concentration
Source text: as §1

[18] = tested on: Aspergillus niger IFO 6342; test: Antifungal activity, agar-dilution MIC, organism No. 30; conditions: Aspergillus niger, IFO6342; Organism No. 30, bouillon-agar; read-out: Minimum Inhibitory Concentration
Source text: as §1

[19] = tested on: Salmonella paratyphi-A 1015; test: Antibacterial activity, agar-dilution MIC, organism No. 10; conditions: Salmonella enterica, PARATYPHI, read-out: Minimum Inhibitory Concentration
Source text: as §1

[20] = tested on: Proteus rettgeri IFO 3850; test: Antibacterial activity, agar-dilution MIC, organism No. 22; conditions: Providencia rettgeri, IFO3850; Organism No. 22, bouillon-agar; read-out: Minimum Inhibitory Concentration
Source text: as §1

[21] = tested on: Candida albicans IAM 4905; test: Antifungal activity, agar-dilution MIC, organism No. 29; conditions: Candida albicans, IAM4905; Organism No. 29, bouillon-agar; read-out: Minimum Inhibitory Concentration
Source text: as §1

[22] = tested on: Pseudomonas aeruginosa NCTC 10490; test: Antibacterial activity, agar-dilution MIC, organism No. 16; conditions: Pseudomonas aeruginosa, NCTC10490; Organism No. 16, bouillon-agar; read-out: Minimum Inhibitory Concentration
Source text: as §1

[23] = tested on: Staphylococcus aureus Terajima; test: Antibacterial activity, agar-dilution MIC, organism No. 2; conditions: Staphylococcus aureus; Organism No. 2, bouillon-agar; read-out: Minimum Inhibitory Concentration
Source text: as §1

Enterobacter cloacae 963 = test: Antibacterial activity, agar-dilution MIC, organism No. 24; conditions: Enterobacter cloacae, 963; Organism No. 24, bouillon-agar; read-out: Minimum Inhibitory Concentration
Source text: as §1

[24] = tested on: Pseudomonas aeruginosa PAO 1; test: Antibacterial activity, agar-dilution MIC, organism No. 17; conditions: Pseudomonas aeruginosa, PAO1; Organism No. 17, bouillon-agar; read-out: Minimum Inhibitory Concentration
Source text: as §1

[25] = tested on: Mycoplasma pneumoniae IID817; test: Antimycoplasmal activity, MIC by phenol red colour change, organism No. 28; conditions: Mycoplasma, IID817; Organism No. 28, PPLO broth + 1% glucose, 37° C.; read-out: Minimum Inhibitory Concentration (MIC)
Method: Mycoplasma pneumoniae IID817 was used as the test microorganism in a culture medium prepared by adding 1% of glucose to "PPLO broth (manufactured by Difco Co.) liquid culture medium" at 37° C. with phenol red as an indicator, thereby culturing the test microorganism.

## [C-]#[N+]C12CC3(/C=C/C(=O)N4CCN(C)CC4)OC3C1O2 (stereo not shown) [compound 23]
[1]
  MIC: 12.5 µg/mL (≈ 45.4 µM)
[2]
  MIC: > 200 µg/mL
[3]
  MIC: 50 µg/mL (≈ 182 µM)
[4]
  MIC: 50 µg/mL (≈ 182 µM)
[5]
  MIC: 25 µg/mL (≈ 90.8 µM)
[6]
  MIC: 200 µg/mL (≈ 726 µM)
[7]
  MIC: 50 µg/mL (≈ 182 µM)
[8]
  MIC: < 0.05 µg/mL
[9]
  MIC: > 200 µg/mL
[10]
  MIC: 200 µg/mL (≈ 726 µM)
[11]
  MIC: 100 µg/mL (≈ 363 µM)
[12]
  MIC: 50 µg/mL (≈ 182 µM)
[13]
  MIC: 50 µg/mL (≈ 182 µM)
Proteus vulgaris OX-19
  MIC: 25 µg/mL (≈ 90.8 µM)
Salmonella typhi 901
  MIC: 12.5 µg/mL (≈ 45.4 µM)
[14]
  MIC: > 200 µg/mL
[15]
  MIC: 200 µg/mL (≈ 726 µM)
[16]
  MIC: 50 µg/mL (≈ 182 µM)
[17]
  MIC: 200 µg/mL (≈ 726 µM)
Proteus vulgaris HX-19
  MIC: 25 µg/mL (≈ 90.8 µM)
[18]
  MIC: 3.13 µg/mL (≈ 11.4 µM)
[19]
  MIC: 25 µg/mL (≈ 90.8 µM)
[20]
  MIC: > 200 µg/mL
[21]
  MIC: 1.56 µg/mL (≈ 5.67 µM)
[22]
  MIC: > 200 µg/mL
[23]
  MIC: > 200 µg/mL
Enterobacter cloacae 963
  MIC: 200 µg/mL (≈ 726 µM)
[24]
  MIC: > 200 µg/mL

## [C-]#[N+]C12CC3(/C=C/C(=O)N4CCC[C@H]4C(=O)OCc4ccccc4)OC3C1O2 (stereo partly shown) [compound 32]
[1]
  MIC: > 200 µg/mL
[2]
  MIC: > 200 µg/mL
[3]
  MIC: > 200 µg/mL
[4]
  MIC: > 200 µg/mL
[5]
  MIC: > 200 µg/mL
[6]
  MIC: > 200 µg/mL
[7]
  MIC: > 200 µg/mL
[8]
  MIC: 1.56 µg/mL (≈ 4.1 µM)
[25]
  MIC: > 100 µg/mL
[9]
  MIC: > 200 µg/mL
[10]
  MIC: > 200 µg/mL
[11]
  MIC: 200 µg/mL (≈ 526 µM)
[12]
  MIC: > 200 µg/mL
[13]
  MIC: > 200 µg/mL
Proteus vulgaris OX-19
  MIC: > 200 µg/mL
Salmonella typhi 901
  MIC: > 200 µg/mL
[15]
  MIC: 200 µg/mL (≈ 526 µM)
[16]
  MIC: 200 µg/mL (≈ 526 µM)
[17]
  MIC: 200 µg/mL (≈ 526 µM)
Proteus vulgaris HX-19
  MIC: > 200 µg/mL
[18]
  MIC: > 100 µg/mL
[19]
  MIC: > 200 µg/mL
[20]
  MIC: > 200 µg/mL
[21]
  MIC: > 100 µg/mL
[22]
  MIC: > 200 µg/mL
[23]
  MIC: 200 µg/mL (≈ 526 µM)
Enterobacter cloacae 963
  MIC: > 200 µg/mL
[24]
  MIC: > 200 µg/mL

## [C-]#[N+]C12CC3(/C=C/C(=O)Nc4ccccc4)OC3C1O2 (stereo not shown) [Compound No. 36]
[1]
  MIC: 0.39 µg/mL (≈ 1.45 µM)
[2]
  MIC: 12.5 µg/mL (≈ 46.6 µM)
[3]
  MIC: < 0.05 µg/mL
[4]
  MIC: 12.5 µg/mL (≈ 46.6 µM)
[5]
  MIC: 0.78 µg/mL (≈ 2.91 µM)
[6]
  MIC: 0.39 µg/mL (≈ 1.45 µM)
[7]
  MIC: 6.25 µg/mL (≈ 23.3 µM)
[8]
  MIC: < 0.05 µg/mL
[25]
  MIC: < 0.2 µg/mL
[9]
  MIC: > 200 µg/mL
[10]
  MIC: 12.5 µg/mL (≈ 46.6 µM)
[12]
  MIC: 1.56 µg/mL (≈ 5.81 µM)
[13]
  MIC: 12.5 µg/mL (≈ 46.6 µM)
Proteus vulgaris OX-19
  MIC: 0.78 µg/mL (≈ 2.91 µM)
Salmonella typhi 901
  MIC: 3.13 µg/mL (≈ 11.7 µM)
[14]
  MIC: > 200 µg/mL
[15]
  MIC: 0.39 µg/mL (≈ 1.45 µM)
[16]
  MIC: 0.2 µg/mL (≈ 0.746 µM)
[17]
  MIC: 0.39 µg/mL (≈ 1.45 µM)
Proteus vulgaris HX-19
  MIC: < 0.05 µg/mL
[18]
  MIC: 1.56 µg/mL (≈ 5.81 µM)
[19]
  MIC: 0.39 µg/mL (≈ 1.45 µM)
[20]
  MIC: 3.13 µg/mL (≈ 11.7 µM)
[21]
  MIC: 0.39 µg/mL (≈ 1.45 µM)
[22]
  MIC: > 200 µg/mL
[23]
  MIC: 0.78 µg/mL (≈ 2.91 µM)
Enterobacter cloacae 963
  MIC: 200 µg/mL (≈ 746 µM)
[24]
  MIC: > 200 µg/mL

## [C-]#[N+]C12CC3(/C=C/C(=O)NC4C(=O)N5C(C(=O)OCC(=O)c6ccc(Br)cc6)=C(C)CSC45)OC3C1O2 (stereo not shown) [compound 34]
[1]
  MIC: > 100 µg/mL
[2]
  MIC: > 100 µg/mL
[3]
  MIC: > 100 µg/mL
[4]
  MIC: > 100 µg/mL
[5]
  MIC: > 100 µg/mL
[6]
  MIC: > 100 µg/mL
[7]
  MIC: > 100 µg/mL
[25]
  MIC: > 100 µg/mL
[9]
  MIC: > 100 µg/mL
[10]
  MIC: > 100 µg/mL
[11]
  MIC: > 100 µg/mL
[12]
  MIC: > 100 µg/mL
[13]
  MIC: > 100 µg/mL
Proteus vulgaris OX-19
  MIC: > 100 µg/mL
Salmonella typhi 901
  MIC: > 100 µg/mL
[14]
  MIC: > 100 µg/mL
[15]
  MIC: > 100 µg/mL
[16]
  MIC: > 100 µg/mL
[17]
  MIC: > 100 µg/mL
Proteus vulgaris HX-19
  MIC: 100 µg/mL (≈ 171 µM)
[18]
  MIC: > 100 µg/mL
[19]
  MIC: > 100 µg/mL
[20]
  MIC: > 100 µg/mL
[21]
  MIC: > 100 µg/mL
[22]
  MIC: > 100 µg/mL
[23]
  MIC: > 100 µg/mL
Enterobacter cloacae 963
  MIC: > 100 µg/mL
[24]
  MIC: > 100 µg/mL
